Experimental data as given in US20050004118A1, “Prodrugs of non-steroidal anti-inflammatory and carboxylic acid containing compounds” (priority 2000, published 2005).
Where two headings read alike, the source gives them in different places.

How the values were obtained:
[1] = stability against chemical hydrolysis in pH solutions; format: physicochemical
plasma enzymes = experiment: half-life of prodrug ester in plasma (hydrolysis by plasma enzymes); conditions: plasma
[2] = cited from earlier work
[3] = half-life of prodrug ester in plasma (hydrolysis by plasma enzymes); conditions: in plasma at physiologic pH

Cc1cccc(Nc2ccccc2C(=O)OCCOC(=O)N2CCOCC2)c1C [2-[(2,3-Dimethylphenyl)amino]-benzoic acid morpholinocarbonyloxyethyl ester]
half-life ([1]; pH 1.0 solution, pH 1, 1.0 pH solution, read-out: half life in a 1.0 pH solution (converted)): 7.6 h
half-life ([1]; pH 7.4 solution, pH 7.4, 7.4 pH solution, read-out: half life in a 7.4 pH solution (converted)): 66 h
half-life (plasma enzymes): 0.333 h

O=C(Oc1ccccc1C(=O)O)c1ccccc1O [Salsalate, salsalate]
solubility at normal acidic gastric pH [2]: insoluble

O=C(Cc1ccccc1Nc1c(Cl)cccc1Cl)OCCOC(=O)N1CCOCC1 [2-[(2,6-Dichlorophenyl])amino]benzene-acetic acid morpholinocarbonyloxyethyl ester]
half life in a 1.0 pH solution ([1]; 1.0 pH solution): 8 hours
half life in a 7.4 pH solution ([1]; 7.4 pH solution): 47 hours
half-life in plasma [3]: 0.35 h
